Where two headings read alike, the source gives them in different places.
How the values were obtained:
HEC1A = assay: MTT cytotoxicity, HEC1A; type: cell-based, human; conditions: 48 h incubation, read-out: Cytotoxic effect, IC50
Experimental: (§1) Cytotoxicity was evaluated against fifteen adherent human cancer cell lines using the MTT test: colorectal adenocarcinoma cells Caco2 (ATCC® HTB-37™), colorectal adenocarcinoma cells HT29 (ATCC® HTB-38™), colon colorectal carcinoma HCT116 (ATCC® CCL-247™), colon adenocarcinoma COLO205 (ATCC® CCL-222™), colorectal adenocarcinoma SW620 (ATCC® CCL-227™), colorectal adenocarcinoma grade IV LoVo (ATCC® CCL-229™), hepatocellular carcinoma Hep 3b (ATCC® HB-8064™), endometrium adenocarcinoma HEC1A (ATCC® HTB-112™), Ishikawa (99040201; Sigma–Aldrich Sigma, St. Louis, MO, USA), cervical adenocarcinoma cells HeLa (ATCC® CCL-2™), lung epithelial carcinoma A549 (ATCC® CRM-CCL-185™), breast epithelial adenocarcinoma cell positive for estrogen and progesterone receptors MCF7 (ATCC® HTB-22™) and negative for expression of estrogen receptor HCC38 (ATCC® CRL-2314™), acute promyelocytic leukemia HL-60 (ATCC® CCL-240™), skin melanoma WM115 (ATCC® CRL-1676™), and 1 suspension cancer cell line: acute lymphoblastic leukemia NALM6 (purchased from the German Collection of Microorganisms and Cell Cultures). HT29, NALM6, HCC-38 and HL-60 cells were cultured in RPMI 1640 medium (Thermo Fisher Scientific, Waltham, MA, USA) supplemented with 10% fetal bovine serum and antibiotic (gentamicin 25 μg ml^−1) (Gibco, Grand Island, New York, NY, USA). For the remaining tumor cell lines, Dulbecco’s minimal essential medium (DMEM, Lonza, Visp, Switzerland) supplemented with 10% fetal bovine serum and antibiotic instead of RPMI 1640 was used. In addition, Human Microvascular Endothelial Cells (HMEC1), which were obtained from the American Type Culture Collection (Manassas, VA, USA), were used as a model of normal cells. HMEC-1 were cultured in MCDB131 medium (Corning Life Sciences, Corning, NY, USA), supplemented with 10% fetal bovine serum, 10 ng/mL Epidermal Growth Factor (Millipore, Burlington, MA, USA) and 10 mM glutamine (Corning Life Sciences). All cells were grown at 37 °C in humidified atmosphere of 5% CO2 in air. The exponential growth of cells was maintained by regular passaging at 90% confluence three times a week using 0.025% trypsin/EDTA (Gibco, Grand Island, New York, NY, USA).
(§2) The cytotoxicity was tested by a standard MTT [3-(4,5-dimethylthiazol-2-yl)-2,5-diphenyltetrazolium bromide] (Sigma, St. Louis, MO, USA) microplate cell viability assay. The anticancer activity of the investigated compounds was evaluated in vitro on the basis of their ability to inhibit the proliferation of various cancer cells. Exponentially growing cells were seeded a day before the experiment into a 96-well microplate (Nunc, Roskilde, Denmark) at a density up to 6–8 × 10^3 cells/mL (depending on the cell line) and exposed to the test compounds at a wide range of concentrations for 48 h. Subsequently, various concentrations of the studied compounds (10^−7–10^−5 M) freshly prepared in DMSO (final concentration of <0.1% DMSO) and diluted with complete culture medium were added. After 48 h incubation, the cells were immediately subjected to a cell viability assay. At this time point, the number of viable cells in each well was estimated by the MTT test. Briefly, 50 µL (5 mg/mL final concentration) of MTT was added to each microplate well. This procedure was then followed by a three- to four-hour incubation at 37 °C. After incubation, MTT solution was replaced with 100 µL DMSO/well, which solubilized the formazan crystals formed by the dehydrogenases of metabolically active cells. Purple formazan absorbance was measured spectrophotometrically at 570 nm.

HT29 = assay: MTT cytotoxicity, HT29; type: cell-based, human; conditions: read-out: Cytotoxic effect, IC50
Experimental: as §1, §2

NALM6 = assay: MTT cytotoxicity, NALM6; type: cell-based, human; conditions: read-out: Cytotoxic effect, IC50
Experimental: as §1, §2

Colo205 = assay: MTT cytotoxicity, Colo205; type: cell-based, human; conditions: read-out: Cytotoxic effect, IC50
Experimental: as §1, §2

HL60 = assay: MTT cytotoxicity, HL60; type: cell-based, human; conditions: read-out: Cytotoxic effect, IC50
Experimental: as §1, §2

LoVo = assay: MTT cytotoxicity, LoVo; type: cell-based, human; conditions: 48 h incubation, read-out: Cytotoxic effect, IC50
Experimental: as §1, §2

A549 = assay: MTT cytotoxicity, A549; type: cell-based, human; conditions: 48 h incubation, read-out: Cytotoxic effect, IC50
Experimental: as §1, §2

WM115 = assay: MTT cytotoxicity, WM115; type: cell-based, human; conditions: read-out: Cytotoxic effect, IC50
Experimental: as §1, §2

Hela = assay: MTT cytotoxicity, Hela; type: cell-based, human; conditions: 48 h incubation, read-out: Cytotoxic effect, IC50
Experimental: as §1, §2

Hep 3b = assay: MTT cytotoxicity, Hep 3b; type: cell-based, human; conditions: 48 h incubation, read-out: Cytotoxic effect, IC50
Experimental: as §1, §2

MCF7 = assay: MTT cytotoxicity, MCF7; type: cell-based, human; conditions: 48 h incubation, read-out: Cytotoxic effect, IC50
Experimental: as §1, §2

SW620 = assay: MTT cytotoxicity, SW620; type: cell-based, human; conditions: read-out: Cytotoxic effect, IC50
Experimental: as §1, §2

HCC38 = assay: MTT cytotoxicity, HCC38; type: cell-based, human; conditions: 48 h incubation, read-out: Cytotoxic effect, IC50
Experimental: as §1, §2

Ishikawa = assay: MTT cytotoxicity, Ishikawa; type: cell-based, human; conditions: 48 h incubation, read-out: Cytotoxic effect, IC50
Experimental: as §1, §2

Caco2 = assay: MTT cytotoxicity, Caco2; type: cell-based, human; conditions: read-out: Cytotoxic effect, IC50
Experimental: as §1, §2

Lipophilicity by RP-TLC = type: physicochemical; set-up: key: RM = log(1/Rf − 1), Rf = a/b; conditions: eluent AcCN: H2O at 30–70% v/v, 22 °C
Experimental: All the experimental solutions of standard substances (0.1 mg/mL) were prepared by dissolving ligands (1a–1d) or ruthenium complexes (2a/3a–2d/3d) in ethanol. Commercially-available octadecyl-modified silica aluminum sheets (20 × 20 cm) were cut into 5 × 10 cm plates. The plates were manually spotted with 1.0 μL of freshly prepared solutions using automatic pipets, 5 mm from each edge. The chromatograms for all compounds (1a/2a/3a–1d/2d/3d) were developed using a horizontal developing chamber and the solvent migration distance was about 4.5 cm. The plates were visually inspected under UV light at 254 nm. Each zone was clearly marked and its distance was manually measured. The RP-TLC analyses of lipophilicity were performed at ambient temperature (22 °C). In this experiment, all measurements were performed in triplicate and the obtained results were used in further calculations. The acetonitrile and water mixtures for ligands 1a–1d and arene–ruthenium(II) complexes 2a/3a–2d/3d were used as mobile phases, with […] content increasing in the range of 30–70% v/v, at 5% intervals. Values of the chromatographic retention coefficient Rf (as shown Formula (1)) and RM (as shown Formula (2)), based on received chromatograms, were calculated and converted as follows:(1) Rf=a/b (2) RM=log1/Rf−1

[1] = Homo sapiens, HT-29, 48 h incubation
[2] = Homo sapiens, NALM-6, 48 h incubation
[3] = Homo sapiens, COLO 205, 48 h incubation
[4] = Homo sapiens, HL-60, 48 h incubation
[5] = Homo sapiens, WM-115, 48 h incubation
[6] = Homo sapiens, SW-620, 48 h incubation
[7] = Homo sapiens, Caco-2, 48 h incubation

Compound | IC50 (HEC1A; Homo sapiens, HEC-1-A) | IC50 (HT29; [1]) | IC50 (NALM6; [2]) | IC50 (Colo205; [3]) | IC50 (HL60; [4]) | IC50 (LoVo; Homo sapiens) | IC50 (A549; Homo sapiens) | IC50 (WM115; [5]) | IC50 (Hela; Homo sapiens) | IC50 (Hep 3b; Homo sapiens, Hep3B) | IC50 (MCF7; Homo sapiens) | IC50 (SW620; [6]) | IC50 (HCC38; Homo sapiens) | IC50 (Ishikawa; Homo sapiens) | IC50 (Caco2; [7]) | Lipophilicity, RM (Lipophilicity by RP-TLC) | other results
Cc1cc(O)n(C(N)=S)n1 [1d] | 99.1 ± 5.7 µM | > 200 µM | > 200 µM | > 200 µM | > 200 µM | > 200 µM | > 200 µM | 90.9 ± 10.2 µM | > 200 µM | > 200 µM | > 200 µM | > 200 µM | > 200 µM | > 200 µM | > 200 µM | 1.29 | 
NC(=S)n1nc(-c2ccccc2)cc1O [1c] | 110 ± 8.9 µM | > 200 µM | 152 ± 26.7 µM | > 200 µM | > 200 µM | > 200 µM | > 200 µM | > 200 µM | > 200 µM | > 200 µM | > 200 µM | > 200 µM | > 200 µM | 94 ± 2.4 µM | > 200 µM | 2.04 | 
Cc1ccc(C(C)C)cc1.Cc1ccc(C(C)C)cc1.[Cl][Ru][Cl].[Cl][Ru][Cl] [compound 4, dichloro(p-cymene)ruthenium(II), reference compound] |  |  |  |  |  |  |  |  |  |  |  |  |  |  |  |  | IC50 (HEC1A): 108 ± 3.4 µM; IC50 (HT29; 48 h incubation): > 200 µM; IC50 (NALM6; 48 h incubation): > 200 µM; IC50 (Colo205; 48 h incubation): > 200 µM; IC50 (HL60; 48 h incubation): > 200 µM; IC50 (LoVo): 168 ± 7 µM; IC50 (A549): > 200 µM; IC50 (WM115; 48 h incubation): > 200 µM; IC50 (Hela): > 200 µM; IC50 (Hep 3b): 167 ± 6.8 µM; IC50 (MCF7): > 200 µM; IC50 (SW620; 48 h incubation): > 200 µM; IC50 (HCC38): > 200 µM; IC50 (Ishikawa): 120 ± 7.2 µM; IC50 (Caco2; 48 h incubation): > 200 µM
CCc1cc(CC)n(C(N)=S)n1 [1b] | 114 ± 11.3 µM | > 200 µM | > 200 µM | > 200 µM | > 200 µM | > 200 µM | > 200 µM | > 200 µM | > 200 µM | > 200 µM | > 200 µM | > 200 µM | > 200 µM | 100 ± 4.6 µM | > 200 µM | 2.51 | 

From paper PMC10180065, “Mechanistic Studies of Arene–Ruthenium(II) Complexes with Carbothioamidopyrazoles as Alternative Cancer Drugs” (Molecules, 2023)
